Source: patent US20150218164A1, “SUBSTITUTED NAPHTHYRIDINEDIONE DERIVATIVES AS HIV INTEGRASE INHIBITORS” (MERCK SHARP & DOHME CORP., priority 2012, published 2015)
Read-outs that look alike come from different tables or passages of the source.

Test system: HIV-1 (NL4-3 strain)
Test: Assay for inhibition of HIV replication (MT4-gag-GFP reporter cells, wild type cell assay)
Type: cell-based
Details: MT4-GFP cells infected with HIV-1 NL4-3, infected cells at 48 h / 24 h, read-out: Wild Type Cell Assay IP (% NHS)
Method: This assay is a kinetic assay that employs a reporter cell line (MT4-gag-GFP) to quantify the number of new cells infected in each round of replication. Briefly, MT4-GFP cells (250,000 cells/ml) were bulk-infected with HIV-1 (NL4-3 strain) at low multiplicity of infection (MOI) in RPMI+10% FBS for 24 hours. Cells were then washed once in RPMI+10% FBS and resuspended RPMI+10% or 50% normal human serum (NHS). Test compounds were serial-diluted in DMSO on ECHO. The infected MT4-GFP cells were added to a 384-well poly-D-lysine coated black plate with clear bottom in which the diluted test compounds were placed. The cells were seeded at 8,000 cells per well and the final DMSO concentration was 0.4%. The infected cells (Green GFP cells) were quantified at both 24 and 48 hours post incubation using Acumen eX3. Viral reproductive ratio (R0) was determined using the number of infected cells at 48 hours divided by the number of infected cells at 24 hours. Percent viral growth inhibition was calculated by [1−(R−Rtripledrug)/(RDMSO−Rtripledrug)]*100. Compound potency IP or IC50 was determined by a 4-parameter dose response curve analysis.

[1] = Human immunodeficiency virus 1, NL43, 50% NHS
[2] = Human immunodeficiency virus 1, NL43, 10% NHS

`C[C@@H](O)CN1C(=O)c2c3c(c(O)c(=O)n2[C@@]12CC[C@H]1C[C@H]12)C(=O)N(Cc1ccc(F)c(Cl)c1)CC3` (single isomer, unassigned) [Compound 2] showed an IC50 [1] of 33 nM.

With `CC(O)CCN1C(=O)c2c3c(c(O)c(=O)n2[C@@]12CC[C@H]1C[C@H]12)C(=O)N(Cc1ccc(F)c(Cl)c1)CC3` (single isomer, unassigned) [Compound 3] the IC50 [1] was 32 nM.

In the case of `O=C1c2c(c3n(c(=O)c2O)[C@@]2(CC[C@H]4C[C@H]42)N(CC(O)CF)C3=O)CCN1Cc1ccc(F)c(Cl)c1` (single isomer, unassigned) [Compound 4], the IC50 [2] is reported as 7.5 nM.

Work on `O=C1c2c(c3n(c(=O)c2O)[C@@]2(CC[C@H]4C[C@H]42)N(CC(F)CO)C3=O)CCN1Cc1ccc(F)c(Cl)c1` (single isomer, unassigned) [Compound 5] yielded an IC50 [2] of 27 nM.

`C[C@H](O)CN1C(=O)c2c3c(c(O)c(=O)n2[C@@]12CC[C@H]1C[C@H]12)C(=O)N(Cc1ccc(F)c(Cl)c1)CC3` (single isomer, unassigned) [Compound 6] gave an IC50 [1] of 53 nM.

`CN1C(=O)c2c3c(c(O)c(=O)n2[C@]12CC[C@@H]1C[C@@]12COP(=O)(O)O)C(=O)N(Cc1ccc(F)c(Cl)c1)CC3` (single isomer, unassigned) [Compound 19] gave an IC50 [1] of 2090 nM.

For `C[C@@H](CN1C(=O)c2c3c(c(O)c(=O)n2[C@@]12CC[C@H]1C[C@H]12)C(=O)N(Cc1ccc(F)c(Cl)c1)CC3)OP(=O)(O)O` [Compound 1], the IC50 [1] was 1200 nM.

Molecule `C[C@H](CN1C(=O)c2c3c(c(O)c(=O)n2[C@@]12CC[C@H]1C[C@H]12)C(=O)N(Cc1ccc(F)c(Cl)c1)CC3)OP(=O)(O)O` [Compound 7] has an IC50 [1] of 1090 nM.

In the case of `C[C@@H](CN1C(=O)c2c3c(c(O)c(=O)n2[C@@]12CC[C@H]1C[C@H]12)C(=O)N(Cc1ccc(F)c(Cl)c1)CC3)OC(=O)[C@@H](N)CCCCN` [Compound 8], the IC50 [1] is reported as 46 nM.

`C[C@H](N)C(=O)O[C@@H](C)CN1C(=O)c2c3c(c(O)c(=O)n2[C@@]12CC[C@H]1C[C@H]12)C(=O)N(Cc1ccc(F)c(Cl)c1)CC3` [Compound 9] showed an IC50 [1] of 42 nM.

In the case of `CC(C)C[C@H](N)C(=O)O[C@@H](C)CN1C(=O)c2c3c(c(O)c(=O)n2[C@@]12CC[C@H]1C[C@H]12)C(=O)N(Cc1ccc(F)c(Cl)c1)CC3` [Compound 10], the IC50 [1] is reported as 49 nM.

`CSCC[C@H](N)C(=O)O[C@@H](C)CN1C(=O)c2c3c(c(O)c(=O)n2[C@@]12CC[C@H]1C[C@H]12)C(=O)N(Cc1ccc(F)c(Cl)c1)CC3` [Compound 11] gave an IC50 [1] of 71 nM.

Work on `CC(C)[C@H](N)C(=O)O[C@@H](C)CN1C(=O)c2c3c(c(O)c(=O)n2[C@@]12CC[C@H]1C[C@H]12)C(=O)N(Cc1ccc(F)c(Cl)c1)CC3` [Compound 12] yielded an IC50 [1] of 54 nM.

For `C[C@@H](CN1C(=O)c2c3c(c(O)c(=O)n2[C@@]12CC[C@H]1C[C@H]12)C(=O)N(Cc1ccc(F)c(Cl)c1)CC3)OC(=O)CN(C)C` [Compound 13], the IC50 [1] was 69 nM.

`CN1C(=O)c2c3c(c(O)c(=O)n2[C@@]12CC[C@@H]1C[C@@]12CO)C(=O)N(Cc1ccc(F)c(Cl)c1)CC3` [Compound 14] was tested, and the IC50 [1] was 14 nM.

Work on `CN1C(=O)c2c3c(c(O)c(=O)n2[C@]12CC[C@@H]1C[C@@]12CO)C(=O)N(Cc1ccc(F)c(Cl)c1)CC3` [Compound 15] yielded an IC50 [1] of 24 nM.

`CSCC12CC1CCC21NC(=O)c2c3c(c(O)c(=O)n21)C(=O)N(Cc1ccc(F)c(Cl)c1)CC3` (stereo not shown) [Compound 16] gave an IC50 [1] of 20 nM.

In the case of `CSCC12CC1CCC21NC(=O)c2c3c(c(O)c(=O)n21)C(=O)N(Cc1ccc(F)c(Cl)c1)CC3` (stereo not shown) [Compound 17], the IC50 (50% NHS) is reported as 28 nM.

Work on `CS(=O)(=O)CC12CC1CCC21NC(=O)c2c3c(c(O)c(=O)n21)C(=O)N(Cc1ccc(F)c(Cl)c1)CC3` (stereo not shown) [Compound 18] yielded an IC50 [1] of 37 nM.
